Assay results taken from a compilation of properties of binary mixtures (doi:10.1016/j.molliq.2017.09.038).

Assay: xn = mol fraction of the nth substance listed
Settings: 101 kPa

Q: Which results are given for CCCCCCCCCC[n+]1ccn(C)c1.[Br-] + O?
A: viscosity (288 K, x1 = 0.0146): 3.39 mPa·s; viscosity (288 K, x1 = 0.0194): 4.6 mPa·s; viscosity (288 K, x1 = 0.0248): 6.77 mPa·s; viscosity (288 K, x1 = 0.031): 9.19 mPa·s; viscosity (293 K, x1 = 0.0146): 3.21 mPa·s; viscosity (293 K, x1 = 0.0194): 4.1 mPa·s; viscosity (293 K, x1 = 0.0248): 5.99 mPa·s; viscosity (293 K, x1 = 0.031): 8.61 mPa·s; viscosity (298 K, x1 = 0.0146): 2.77 mPa·s; viscosity (298 K, x1 = 0.0194): 3.72 mPa·s; viscosity (298 K, x1 = 0.0248): 5.72 mPa·s; viscosity (298 K, x1 = 0.031): 8.09 mPa·s; viscosity (303 K, x1 = 0.0248): 5.12 mPa·s; viscosity (303 K, x1 = 0.031): 7.92 mPa·s; viscosity (308 K, x1 = 0.0146): 1.94 mPa·s; viscosity (308 K, x1 = 0.0194): 2.83 mPa·s; viscosity (308 K, x1 = 0.0248): 4.22 mPa·s; viscosity (308 K, x1 = 0.031): 7.3 mPa·s
